# What was measured:
# [1] = system: farnesylated UCH-L1; assay: Farnesylated UCH-L1 in cortex membrane fraction of α-synuclein transgenic mice (quantitative Western blot); assay type: in vivo; conditions: normalized to actin, 45 mg/kg twice a day, 30 days
# Description: Farnesyl transferase inhibitors Zarnestra and OSI-754 were administered to mice of the α-synuclein transgenic line described in Masliah et al. (Masliah et al. “Dopaminergic loss and inclusion body formation in alpha-synuclein mice: implications for neurodegenerative disorders” Science 287(5456): 1265-69, 2000; incorporated herein by reference). Animals from this line have α-synuclein neuronal inclusions in the cortex, hippocampus, and the olfactory bulb (Masliah et al. “Dopaminergic loss and inclusion body formation in alpha-synuclein mice: implications for neurodegenerative disorders” Science 287(5456): 1265-69, 2000; incorporated herein by reference). […]
# Total α-synuclein levels were analyzed by a sandwich ELISA assay similar to one previously described (El-Agnaf et al. “Detection of oligomeric forms of alpha-synuclein protein in human plasma as a potential biomarker for Parkinson's disease” FASEB J. 20(3):419-25, 2006; incorporated herein by reference). […] Transgenic mice that received Zarnestra had lower α-synuclein protein levels than vehicle-treated transgenic mice and nearly the same as that detected in the non-transgenic group in both the cytoplasmic (FIG. 10) and membrane fractions (FIG. 11), which represent soluble and insoluble α-synuclein, respectively. […] The amount of UCH-L1 was determined by quantitative Western Blot. […]
# [2] = system: α-synuclein inclusions; assay: Inclusion histology in α-synuclein transgenic mice (α-synuclein and ubiquitin immunostaining, Campbell-Switzer); assay type: in vivo; conditions: for α-synuclein-positive cells per mm^2 versus vehicle: cortex and hippocampus
# Description: (§1) Farnesyl transferase inhibitors Zarnestra and OSI-754 were administered to mice of the α-synuclein transgenic line described in Masliah et al. (Masliah et al. “Dopaminergic loss and inclusion body formation in alpha-synuclein mice: implications for neurodegenerative disorders” Science 287(5456): 1265-69, 2000; incorporated herein by reference). Animals from this line have α-synuclein neuronal inclusions in the cortex, hippocampus, and the olfactory bulb (Masliah et al. “Dopaminergic loss and inclusion body formation in alpha-synuclein mice: implications for neurodegenerative disorders” Science 287(5456): 1265-69, 2000; incorporated herein by reference). Transgenic mice were orally administered either FTI in 20% cyclodextrin solution or the same volume of vehicle alone twice a day for 30 or 90 days. In some cases, non-transgenic mice also received vehicle twice a day for 30 to 90 days. At the end of treatment, mice were sacrificed, and the brains removed and hemisected. One hemisphere of each was fixed in 4% paraformaldehyde/PBS (pH 7.4), cryoperserved, then sectioned for histology. The other hemisphere was subdivided into four brain regions, including the cortex and hippocampus, that were homogenized and processed into cytoplasmic and membrane fractions.
# Formation of α-synuclein inclusions in the cortex and hippocampus was probed by immunostaining with an antibody for human α-synuclein. Cells positive for human α-synuclein were quantified. […] These regions were also analyzed for ubiquitin-immunoreactive inclusions and by the Campbell Switzer method of silver staining. Ubiquitin is known to be a constituent of Lewy bodies and in the α-synculein inclusions found in the transgenic mouse line used in the study (Masliah et al. “Dopaminergic loss and inclusion body formation in alpha-synuclein mice: implications for neurodegenerative disorders” Science 287(5456): 1265-69, 2000; incorporated herein by reference). […] Campbell-Switzer staining is a general marker of Lewy Body type inclusions (Uchihara et al. “Silver stainings distinguish Lewy bodies and glial cytoplasmic inclusions: comparison between Gallyas-Braak and Campbell-Switzer methods” Acta Neuropathol (Berl) 110(3):255-60, 2005; incorporated herein by reference).
# Formation of α-synuclein inclusions in the cortex and hippocampus was probed by immunostaining with an antibody for human α-synuclein. Cells positive for human α-synuclein were quantified.
# [3] = system: Neuronal Specific Nuclear Protein (NeuN); assay: NeuN staining of cortex and hippocampus of α-synuclein transgenic mice; assay type: in vivo; conditions: 90 days
# [4] = target: recombinant farnesyl transferase (FTase) (Homo sapiens, UniProt P49354+P49356); assay: In vitro farnesyl transferase assay (fluorescent dansyl-pentapeptide); assay type: biochemical; conditions: in vitro and in vivo
# Description: These neuroblastoma cells can be differentiated into dopaminergic cells and are useful for assessing the pathogenesis of Parkinson's disease (PD). […] Similar findings were found in vivo. […] IC50 values for various inventive compounds have been determined in in vitro assays using recombinant farnesyl transferase and a dansylated pentapeptide substrate. For a description of the assay used, see Cassidy et al., Methods Enzymol. 250:30-43, 1995, which is incorporated herein by reference. […] The compounds were also found to inhibit the farnesylation of Ras in cells treated with the test compound. IC50 values in vivo range from about 0.5 nM to about 25 μM.
# Compounds were analyzed for inhibition of farnesyl transferase (FTase) activity using an established fluorescent peptide-based assay (Pompliano et al 1992 J. Am. Chem. Soc. 114:7945; U.S. Pat. No. 5,525,479, issued Jun. 11, 1996; each of which is incorporated herein by reference). In summary, a dansyl-pentapeptide (dGCVLS) (SEQ ID NO: 8) was incubated at […] with […] farnesyl pyrophosphate (FPP) and 25-50 nM FTase in 50 mM Tris-HC1/12 mM MgC12/[…]/6 mM DTT/0.2% octyl-D- -glucopyranoside/pH 7.0 at room temperature while the increase in fluorescence of the peptide at Ex =340 nm , Em =485 nm upon farnesyl addition was monitored continuously by a spectrofluorometer. […]
# [5] = system: α-synuclein; assay: α-synuclein sandwich ELISA in brain fractions of α-synuclein transgenic mice; assay type: in vivo
# Description: as §1
# Total α-synuclein levels were analyzed by a sandwich ELISA assay similar to one previously described (El-Agnaf et al. “Detection of oligomeric forms of alpha-synuclein protein in human plasma as a potential biomarker for Parkinson's disease” FASEB J. 20(3):419-25, 2006; incorporated herein by reference). In the cortex of vehicle treated animals, α-synuclein protein levels in the α-synuclein transgenic line are greater than in non-transgenic mice in both cytoplasmic (FIG. 10) and membrane fractions (FIG. 11). Transgenic mice that received Zarnestra had lower α-synuclein protein levels than vehicle-treated transgenic mice and nearly the same as that detected in the non-transgenic group in both the cytoplasmic (FIG. 10) and membrane fractions (FIG. 11), which represent soluble and insoluble α-synuclein, respectively. Farnesylated UCH-L1 in the cortex is contained in the membrane fraction. The amount of UCH-L1 was determined by quantitative Western Blot.
# [6] = α-synuclein transgenic mice, summary, dose not given
smiles,measurement,setting,value
C#Cc1cccc(-c2cc(=O)n(C)c3ccc(C(O)(c4ccc(Cl)cc4)c4cncn4C)cc23)c1 (stereo not drawn) [LNK-754],amount of farnesylated UCH-L1,[1],decreased the amount of farnesylated UCH-L1
same,inclusions versus vehicle,"[2]; 9 mg/kg twice a day, 90 days",fewer inclusions
same,inclusions versus vehicle,"[2]; 45 mg/kg twice a day, 90 days",fewer inclusions
same,α-synuclein-positive cells per mm^2 versus vehicle,"[2]; 9 mg/kg twice a day, 90 days",fewer α-synuclein-positive cells per mm^2
same,α-synuclein-positive cells per mm^2 versus vehicle,"[2]; 45 mg/kg twice a day, 90 days",fewer α-synuclein-positive cells per mm^2
same,inclusions versus vehicle,[2]; [6],fewer inclusions
same,neuronal morphology or density (NeuN staining),[3],did not affect neuronal morphology or density
same,inhibition of the farnesylation of proteins and/or peptides,[4],inhibit the farnesylation of proteins and/or peptides in vitro and in vivo
same,levels of α-synuclein protein (ELISA),"[5]; cortex and hippocampus, 9 mg/kg twice a day, 90 days",decreased levels of α-synuclein protein
same,levels of α-synuclein protein (ELISA),"[5]; cortex and hippocampus, 45 mg/kg twice a day, 90 days",decreased levels of α-synuclein protein
same,levels of α-synuclein protein (ELISA),"[5]; cortex, cytoplasmic and membrane fractions, 45 mg/kg twice a day, 30 days",decreased levels of α-synuclein protein
same,levels of α-synuclein in the cortex,[5]; [6],decrease levels of α-synuclein in the cortex

# From US8232402B2, “Quinolinone farnesyl transferase inhibitors for the treatment of synucleinopathies and other indications” (Link Medicine Corporation, priority 2008, dated 2012)
